Laboratory results published in US9796700B2 (Celgene CAR LLC, priority 2013, dated 2017).

Biological target: Erk1 (Homo sapiens (Human), UniProt P27361)
Assay: Protein Mass Modification Assay (intact protein MALDI)
Type: binding
Method in brief: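 Human Erk1 was incubated 60 min at room temperature with a 10-fold molar excess of compound, then analysed as intact protein by MALDI with sinapinic acid matrix. The centroid mass shift versus untreated protein was divided by compound molecular weight to give percent modified protein.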

Sequence of Erk1 (P27361 whole entry, looked up): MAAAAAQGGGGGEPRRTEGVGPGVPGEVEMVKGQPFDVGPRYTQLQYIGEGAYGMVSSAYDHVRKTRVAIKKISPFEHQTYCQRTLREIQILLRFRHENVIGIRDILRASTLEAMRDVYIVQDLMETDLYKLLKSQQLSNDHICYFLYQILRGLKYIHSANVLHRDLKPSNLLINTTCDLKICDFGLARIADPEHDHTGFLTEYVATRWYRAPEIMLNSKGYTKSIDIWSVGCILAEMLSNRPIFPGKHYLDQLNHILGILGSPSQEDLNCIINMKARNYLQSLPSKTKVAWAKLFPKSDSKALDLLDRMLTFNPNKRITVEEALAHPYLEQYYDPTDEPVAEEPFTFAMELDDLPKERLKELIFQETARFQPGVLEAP

| ERK1 Mass Mod (%) | SMILES |
| --- | --- |
| E (provided a mass modification of ≧70%) | C=CC(=O)Nc1ccccc1Nc1nc(Nc2ccc3c(c2OC)CCCC(=O)N3CCCNC(=O)OC(C)(C)C)ncc1Cl [Compound I-147, tert-butyl (3-(7-((4-((2-acrylamidophenyl)amino)-5-chloropyrimidin-2-yl)amino)-6-methoxy-2-oxo-2,3,4,5-tetrahydro-1H-benzo[b]azepin-1-yl)propyl)carbamate] |
| E (provided a mass modification of ≧70%) | C=CC(=O)Nc1ccccc1Nc1nc(Nc2ccc3c(c2OC)CCCC(=O)N3CCCN)ncc1Cl [Compound I-148, N-(2-((2-((1-(3-aminopropyl)-6-methoxy-2-oxo-2,3,4,5-tetrahydro-1H-benzo[b]azepin-7-yl)amino)-5-chloropyrimidin-4-yl)amino)phenyl)acrylamide] |
| E (provided a mass modification of ≧70%) | C=CC(=O)Nc1ccccc1Nc1nc(Nc2ccc(N(CC)C(C)=O)cc2OC)ncc1Cl [Compound I-155, N-(2-((5-chloro-2-((4-(N-ethylacetamido)-2-methoxyphenyl)amino)pyrimidin-4-yl)amino)phenyl)acrylamide] |
| E (provided a mass modification of ≧70%) | C=CC(=O)Nc1cc(OC)ccc1Nc1nc(Nc2ccc(N3CCCN(C(=O)OC(C)(C)C)CC3)cc2C#N)ncc1Cl [Compound I-156, tert-butyl 4-(4-((4-((2-acrylamido-4-methoxyphenyl)amino)-5-chloropyrimidin-2-yl)amino)-3-cyanophenyl)-1,4-diazepane-1-carboxylate] |
| E (provided a mass modification of ≧70%) | C=CC(=O)Nc1cc(OC)ccc1Nc1nc(Nc2ccc(N3CCC[C@H]3CO)cc2C#N)ncc1Cl [Compound I-163, (S)—N-(2-((5-chloro-2-((2-cyano-4-(2-(hydroxymethyl)pyrrolidin-1-yl)phenyl)amino)pyrimidin-4-yl)amino)-5-methoxyphenyl)acrylamide] |
| E (provided a mass modification of ≧70%) | C=CC(=O)Nc1cc(OC)ccc1Nc1nc(Nc2ccc(N(CC)C(C)=O)cc2C#N)ncc1Cl [Compound I-164, N-(2-((5-chloro-2-((2-cyano-4-(N-ethylacetamido)phenyl)amino)pyrimidin-4-yl)amino)-5-methoxyphenyl)acrylamide] |
| E (provided a mass modification of ≧70%) | C=CC(=O)Nc1cc(OC)ccc1Nc1nc(Nc2ccc3c(c2)CC(=O)N3CC)ncc1Cl [Compound I-166, N-(2-((5-chloro-2-((1-ethyl-2-oxoindolin-5-yl)amino)pyrimidin-4-yl)amino)-5-methoxyphenyl)acrylamide] |
| E (provided a mass modification of ≧70%) | C=CC(=O)Nc1ccccc1Nc1nc(Nc2ccc(N(CCCN)C(C)=O)cc2OC)ncc1Cl [Compound I-167, N-(2-((2-((4-(N-(3-aminopropyl)acetamido)-2-methoxyphenyl)amino)-5-chloropyrimidin-4-yl)amino)phenyl)acrylamide] |
| E (provided a mass modification of ≧70%) | C=CC(=O)Nc1ccccc1Nc1nc(Nc2ccc(N(CCN)C(C)=O)cc2OC)ncc1Cl [Compound I-168, N-(2-((2-((4-(N-(2-aminoethyl)acetamido)-2-methoxyphenyl)amino)-5-chloropyrimidin-4-yl)amino)phenyl)acrylamide] |
| E (provided a mass modification of ≧70%) | C=CC(=O)Nc1ccccc1Nc1nc(Nc2ccc(N(CCCNC(=O)OC(C)(C)C)C(C)=O)cc2C(F)(F)F)ncc1Cl [Compound I-169, tert-butyl (3-(N-(4-((4-((2-acrylamidophenyl)amino)-5-chloropyrimidin-2-yl)amino)-3-(trifluoromethyl)phenyl)acetamido)propyl)carbamate] |
| E (provided a mass modification of ≧70%) | C=CC(=O)Nc1ccccc1Nc1nc(Nc2ccc(N(CCCNC(=O)OC(C)(C)C)C(C)=O)cc2OC)ncc1Cl [Compound I-173] |
| E (provided a mass modification of ≧70%) | C=CC(=O)Nc1cc(OC)ccc1Nc1nc(Nc2ccc(N(CC)C(C)=O)cc2OC)ncc1Cl [Compound I-175, N-(2-((5-chloro-2-((4-(N-ethylacetamido)-2-methoxyphenyl)amino)pyrimidin-4-yl)amino)-5-methoxyphenyl)acrylamide] |
| E (provided a mass modification of ≧70%) | C=CC(=O)Nc1cc(OC)ccc1Nc1nc(Nc2ccc(N(CC)C(C)=O)cc2C(F)(F)F)ncc1Cl [Compound I-176, N-(2-((5-chloro-2-((4-(N-ethylacetamido)-2-(trifluoromethyl)phenyl)amino)pyrimidin-4-yl)amino)-5-methoxyphenyl)acrylamide] |
| E (provided a mass modification of ≧70%) | C=CC(=O)Nc1ccccc1Nc1nc(Nc2ccc(N3CCC[C@H]3C(N)=O)cc2C#N)ncc1Cl [Compound I-177, (S)-1-(4-((4-((2-acrylamidophenyl)amino)-5-chloropyrimidin-2-yl)amino)-3-cyanophenyl)pyrrolidine-2-carboxamide] |
| E (provided a mass modification of ≧70%) | C=CC(=O)Nc1cc(OC)ccc1Nc1nc(Nc2ccc(N3CCC[C@H]3C(N)=O)cc2C#N)ncc1Cl [Compound I-178, (S)-1-(4-((4-((2-acrylamido-4-methoxyphenyl)amino)-5-chloropyrimidin-2-yl)amino)-3-cyanophenyl)pyrrolidine-2-carboxamide] |
| E (provided a mass modification of ≧70%) | C=CC(=O)Nc1ccccc1Nc1nc(Nc2ccc(N3CCC[C@@H]3C(N)=O)cc2C#N)ncc1Cl [Compound I-179, (R)-1-(4-((4-((2-acrylamidophenyl)amino)-5-chloropyrimidin-2-yl)amino)-3-cyanophenyl)pyrrolidine-2-carboxamide] |
| E (provided a mass modification of ≧70%) | C=CC(=O)Nc1cc(OC)ccc1Nc1nc(Nc2ccc(N3CCC[C@@H]3C(N)=O)cc2C#N)ncc1Cl [Compound I-180, (R)-1-(4-((4-((2-acrylamido-4-methoxyphenyl)amino)-5-chloropyrimidin-2-yl)amino)-3-cyanophenyl)pyrrolidine-2-carboxamide] |
| E (provided a mass modification of ≧70%) | C=CC(=O)Nc1cc(OC)ccc1Nc1nc(Nc2ccc(N3CCC[C@@H]3CO)cc2C#N)ncc1Cl [Compound I-181, (R)—N-(2-((5-chloro-2-((2-cyano-4-(2-(hydroxymethyl)pyrrolidin-1-yl)phenyl)amino)pyrimidin-4-yl)amino)-5-methoxyphenyl)acrylamide] |
| E (provided a mass modification of ≧70%) | C=CC(=O)Nc1ccccc1Nc1nc(Nc2ccc(NC(=O)COC(C)=O)cc2OC)ncc1Cl [Compound I-183, 2-((4-((4-((2-acrylamidophenyl)amino)-5-chloropyrimidin-2-yl)amino)-3-methoxyphenyl)amino)-2-oxoethyl acetate] |
| E (provided a mass modification of ≧70%) | C=CC(=O)Nc1ccccc1Nc1nc(Nc2ccc(NS(C)(=O)=O)cc2OC)ncc1Cl [Compound I-185, N-(2-((5-chloro-2-((2-methoxy-4-(methylsulfonamido)phenyl)amino)pyrimidin-4-yl)amino)phenyl)acrylamide] |
| E (provided a mass modification of ≧70%) | C=CC(=O)Nc1ccccc1Nc1nc(Nc2ccc(NC(=O)CO)cc2OC)ncc1Cl [Compound I-186, N-(2-((5-chloro-2-((4-(2-hydroxyacetamido)-2-methoxyphenyl)amino)pyrimidin-4-yl)amino)phenyl)acrylamide] |
| E (provided a mass modification of ≧70%) | C=CC(=O)Nc1ccccc1Nc1nc(Nc2cc(C(=O)NOCCO)ccc2OC)ncc1Cl [Compound I-194, 3-((4-((2-acrylamidophenyl)amino)-5-chloropyrimidin-2-yl)amino)-N-(2-hydroxyethoxy)-4-methoxybenzamide] |
| E (provided a mass modification of ≧70%) | C=CC(=O)Nc1ccccc1Nc1nc(Nc2cc(C(=O)NOC)ccc2C#N)ncc1Cl [Compound I-195, 3-((4-((2-acrylamidophenyl)amino)-5-chloropyrimidin-2-yl)amino)-4-cyano-N-methoxybenzamide] |
| E (provided a mass modification of ≧70%) | C=CC(=O)N(C)c1ccccc1Nc1nc(Nc2cc(C(N)=O)ccc2C#N)ncc1Cl [Compound I-196, 3-((5-chloro-4-((2-(N-methylacrylamido)phenyl)amino)pyrimidin-2-yl)amino)-4-cyanobenzamide] |
| E (provided a mass modification of ≧70%) | C=CC(=O)Nc1cc(F)ccc1Nc1nc(Nc2cc(C(N)=O)ccc2C#N)ncc1Cl [Compound I-207, 3-(4-(2-acrylamido-4-fluorophenylamino)-5-chloropyrimidin-2-ylamino)-4-cyanobenzamide] |

| SMILES | ERK1 Mass Mod (%) |
| --- | --- |
| C=CC(=O)Nc1ccccc1Nc1nc(Nc2ccc(N(CCNC(=O)OC(C)(C)C)C(C)=O)cc2OC)ncc1Cl [Compound I-174, tert-butyl (2-(N-(4-((4-((2-acrylamidophenyl)amino)-5-chloropyrimidin-2-yl)amino)-3-methoxyphenyl)acetamido)ethyl)carbamate] | E (key: E: provided a mass modification of ≧70%; F: provided a mass modification of 31-69%; G: proived a mass modification ≦30%) |
| C=CC(=O)Nc1ccccc1Nc1nc(Nc2cc(C(=O)NOCCO)ccc2C#N)ncc1Cl [Compound I-202, 3-((4-((2-acrylamidophenyl)amino)-5-chloropyrimidin-2-yl)amino)-4-cyano-N-(2-hydroxyethoxy)benzamide] | F (key: E: provided a mass modification of ≧70%; F: provided a mass modification of 31-69%; G: proived a mass modification ≦30%) |
| C=CC(=O)Nc1ccccc1Nc1nc(Nc2ccc(F)cc2C)ncc1Cl [Compound I-209, N-(2-((5-chloro-2-((4-fluoro-2-methylphenyl)amino)pyrimidin-4-yl)amino)phenyl)acrylamide] | F (provided a mass modification of 31-69%) |
| C=CC(=O)Nc1ccccc1Nc1nc(Nc2ccc(F)cc2OC)ncc1Cl [Compound I-210, N-(2-((5-chloro-2-((4-fluoro-2-methoxyphenyl)amino)pyrimidin-4-yl)amino)phenyl)acrylamide] | F (provided a mass modification of 31-69%) |
